Results: patent US10315996B2, “ROR gamma (RORγ) modulators” (LEAD PHARMA HOLDING B.V., priority 2015, dated 2019)

Molecular target: T1, RORγ (Homo sapiens, UniProt P51449)
T1 construct: expressed in transfected cells; host or cells: 293FT cells (Invitrogen), expression vector pFN26A (Promega)
T1 sequence (P51449 269-508 limits assumed): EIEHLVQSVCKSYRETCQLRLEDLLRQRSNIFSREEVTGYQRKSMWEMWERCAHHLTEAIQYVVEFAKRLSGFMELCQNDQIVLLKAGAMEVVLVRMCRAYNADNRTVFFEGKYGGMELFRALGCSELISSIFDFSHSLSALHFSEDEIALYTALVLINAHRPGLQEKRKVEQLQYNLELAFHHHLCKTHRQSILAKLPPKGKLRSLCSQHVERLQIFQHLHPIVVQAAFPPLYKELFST
Assay: RORγ GAL4 reporter gene assay
Type: cell-based
Conditions: inhibition of RORγ activity, GAL4-RORγ-LBD luciferase reporter in 293FT cells, overnight incubation; read-out: mean pIC50 (converted)
Description: Example inhibitors 1-166 were tested for their ability to inhibit RORγ activity in a RORγ GAL4 reporter gene assay. The assay procedure and results are described below.
RORγ GAL4 Reporter Gene Assay Description
A GAL4 one-hybrid reporter system employing luciferase readout was established to determine inhibition of RORγ in 293FT cells. The RORγ ligand-binding domain (LBD) was fused to the yeast GAL4 DNA binding domain (DBD) and placed under the control of the human cytomegalovirus (CMV) immediate early promoter, using expression vector pFN26A (Promega) and standard recombinant DNA cloning methods. To serve as a control in the assay, a similar vector was generated in which the GAL4-DBD was fused to Herpes simplex virus protein 16 (VP16), a constitutive transcriptional activator.
To monitor the inhibitory effect of compounds on RORγ, a transcriptional reporter construct was used. The pGL4.35 vector (Promega) contains nine copies of the GAL4 Upstream Activator Sequence (UAS). This sequence drives the transcription of the luciferase reporter gene luc2P in response to binding of a fusion protein containing the GAL4 DNA binding domain, as for example expressed by the GAL4-RORγ-LBD and GAL4-VP16 expression vectors described above. To allow a GAL4 fusion protein to drive the expression of the luciferase reporter, the pGL4.35 expression vector and the appropriate GAL4 fusion protein expression vector were bulk transfected in the 293FT cells using standard transfection techniques.
The day after transfection, cells were plated into 96 well plates, test compound was added and the plates were incubated overnight. Subsequently, the firefly luciferase activity was quantified using luciferase detection reagent and luminescence readout.
Detailed Assay Description
293FT cells (Invitrogen) were transfected with a GAL4 fusion protein expression vector (as described above) and the transcriptional reporter construct (pGL4.35, Promega). 60 μL of TransIT-293 transfection reagent (Mirus Bio) was added drop wise to 1500 μl Opti-MEM I Reduced Serum Medium (Invitrogen) and incubated at room temperature (RT) for 5 to 20 minutes. 1500 μL of this reagent mixture was added to 5 μg of GAL4 fusion protein expression vector and 5 μg of the transcriptional reporter construct, and incubated at RT for 20 minutes.
To harvest 293FT cells from a T75 flask, first the culture medium was taken off the cells. Subsequently, the cells were washed with Phosphate Buffered Saline (PBS) (Lonza), after which the PBS was removed. To dissociate the cells, 1 ml of TrypLE Express (Invitrogen) was added to the flask, followed by incubation at RT until the cells visually started to detach. Cells were collected in 5 mL of assay medium (DMEM culture medium (Lonza), 10% dialyzed FBS (Invitrogen) and Pen/Strep (Lonza)) to achieve a single cell suspension. 10×10^6 cells were spun down and re-suspended in 10 mL of assay medium. Subsequently, the cell suspension was added to the transfection mix tube, and then transferred as a whole to a T75 flask (Greiner), followed by overnight (16-24 hours) incubation at 37° C. and 5% CO2.
For compound screening, the cells were harvested (as described above) and counted. 13×10^6 cells were spun down, the supernatant was aspirated and the cells were re-suspended in 17.3 mL of assay medium obtaining a cell suspension of 0.75×10^6 cells/mL. 80 μL of cell suspension (60,000 cells) was plated per well into a white, flat bottom, tissue culture treated, 96 well screening plates (Greiner).
Test compounds were diluted, starting from a 10 mM dimethylsulfoxide (DMSO) stock solution, to serial dilutions in DMSO at 500× the final test concentration. Subsequently, these solutions were diluted to 5× the final test concentration in two 10-fold-dilution steps in assay medium. The final DMSO concentration of the 5× test compound solution was 1%. […]

SMILES	IC50 [µM]
CCCNC(=O)c1ccc(NC(=O)Cc2ccc(S(=O)(=O)CC3CC3)cc2)cc1 [Example 1, 4-[2-(4-cyclopropylmethanesulfonylphenyl)acetamido]-N-propylbenzamide]	≤ 1
CCNC(=O)c1ccc(NC(=O)Cc2ccc(S(=O)(=O)CC3CC3)cc2)cc1 [Example 2, 4-[2-(4-cyclopropylmethanesulfonylphenyl)acetamido]-N-ethylbenzamide]	≤ 1
CN(C(=O)c1ccc(NC(=O)Cc2ccc(S(=O)(=O)CC3CC3)cc2)cc1)c1ccccc1 [Example 3, 4-[2-(4-cyclopropylmethanesulfonylphenyl)acetamido]-N-methyl-N-phenylbenzamide]	≤ 0.01
CN(Cc1ccccc1)C(=O)c1ccc(NC(=O)Cc2ccc(S(=O)(=O)CC3CC3)cc2)cc1 [Example 5, N-benzyl-4-[2-(4-cyclopropylmethanesulfonylphenyl)acetamido]-N-methylbenzamide]	≤ 0.1
CCCN(C)C(=O)c1ccc(NC(=O)Cc2ccc(S(=O)(=O)CC3CC3)cc2)cc1 [Example 7, 4-[2-(4-cyclopropylmethanesulfonylphenyl)acetamido]-N-methyl-N-propylbenzamide]	≤ 1
CC(C)CN(C)C(=O)c1ccc(NC(=O)Cc2ccc(S(=O)(=O)CC3CC3)cc2)cc1 [Example 8, 4-[2-(4-cyclopropylmethanesulfonylphenyl)acetamido]-N-methyl-N-(2-methylpropyl)benzamide]	≤ 1
CN(CCc1ccccc1)C(=O)c1ccc(NC(=O)Cc2ccc(S(=O)(=O)CC3CC3)cc2)cc1 [Example 10, 4-[2-(4-cyclopropylmethanesulfonylphenyl)acetamido]-N-methyl-N-(2-phenylethyl)benzamide]	≤ 0.1
CC(C)(C)NC(=O)c1ccc(NC(=O)Cc2ccc(S(=O)(=O)CC3CC3)cc2)cc1 [Example 11, N-tert-butyl-4-[2-(4-cyclopropylmethanesulfonylphenyl)acetamido]benzamide]	≤ 1
O=C(Cc1ccc(S(=O)(=O)CC2CC2)cc1)Nc1ccc(C(=O)N(Cc2ccccc2)Cc2ccccc2)cc1 [Example 12, N,N-dibenzyl-4-[2-(4-cyclopropylmethanesulfonylphenyl)acetamido]benzamide]	≤ 0.1
O=C(Cc1ccc(S(=O)(=O)CC2CC2)cc1)Nc1ccc(C(=O)NCc2ccccc2)cc1 [Example 13, N-benzyl-4-[2-(4-cyclopropylmethanesulfonylphenyl)acetamido]benzamide]	≤ 1
CC(NC(=O)c1ccc(NC(=O)Cc2ccc(S(=O)(=O)CC3CC3)cc2)cc1)c1ccccc1 (stereo not shown) [Example 14, 4-[2-(4-cyclopropylmethanesulfonylphenyl)acetamido]-N-(1-phenylethyl)benzamide]	≤ 0.1
CC(C)CN(CC(C)C)C(=O)c1ccc(NC(=O)Cc2ccc(S(=O)(=O)CC3CC3)cc2)cc1 [Example 15, 4-[2-(4-cyclopropylmethanesulfonylphenyl)acetamido]-N,N-bis(2-methylpropyl)benzamide]	≤ 0.1
CCN(C(=O)c1ccc(NC(=O)Cc2ccc(S(=O)(=O)CC3CC3)cc2)cc1)c1ccccc1 [Example 16, 4-[2-(4-cyclopropylmethanesulfonylphenyl)acetamido]-N-ethyl-N-phenylbenzamide]	≤ 0.01
CN(C(=O)c1ccc(NC(=O)Cc2ccc(S(=O)(=O)CC3CC3)cc2)cc1)c1ccccn1 [Example 17, 4-[2-(4-cyclopropylmethanesulfonylphenyl)acetamido]-N-methyl-N-(pyridin-2-yl)benzamide]	≤ 0.1
C[C@@H](c1ccccc1)N(C)C(=O)c1ccc(NC(=O)Cc2ccc(S(=O)(=O)CC3CC3)cc2)cc1 [Example 18, 4-[2-(4-cyclopropylmethanesulfonylphenyl)acetamido]-N-methyl-N-[(1S)-1-phenylethyl]benzamide]	≤ 0.1
CCCN(C(=O)c1ccc(NC(=O)Cc2ccc(S(=O)(=O)CC3CC3)cc2)cc1)c1ccccc1 [Example 19, 4-[2-(4-cyclopropylmethanesulfonylphenyl)acetamido]-N-phenyl-N-propylbenzamide]	≤ 0.01
CCCN(C(=O)c1ccc(NC(=O)Cc2ccc(S(=O)(=O)CC3CC3)cc2)cc1)c1cccnc1 [Example 20, 4-[2-(4-cyclopropylmethanesulfonylphenyl)acetamido]-N-propyl-N-(pyridin-3-yl)benzamide]	≤ 0.01

More lines, now with the values ahead:

IC50 [µM]	SMILES
≤ 0.01	CCCN(Cc1ccccc1)C(=O)c1ccc(NC(=O)Cc2ccc(S(=O)(=O)CC3CC3)cc2)cc1 [Example 21, N-benzyl-4-[2-(4-cyclopropylmethanesulfonylphenyl)acetamido]-N-propylbenzamide]
≤ 0.1	CCCN(C(=O)c1ccc(NC(=O)Cc2ccc(S(=O)(=O)NC3CC3)cc2)cc1)c1ccccc1 [Example 22, 4-{2-[4-(cyclopropylsulfamoyl)phenyl]acetamido}-N-phenyl-N-propylbenzamide]
≤ 1	CCCN(Cc1ccccc1)C(=O)c1ccc(NC(=O)Cc2ccc(S(=O)(=O)NC3CC3)cc2)cc1 [Example 23, N-benzyl-4-{2-[4-(cyclopropylsulfamoyl)phenyl]acetamido}-N-propylbenzamide]
≤ 0.1	O=C(Cc1ccc(S(=O)(=O)NC2CC2)cc1)Nc1ccc(C(=O)N(Cc2ccccc2)Cc2ccccc2)cc1 [Example 24, N,N-dibenzyl-4-{2-[4-(cyclopropylsulfamoyl)phenyl]acetamido}benzamide]
≤ 1	CCOC(=O)C1CCCN(C(=O)c2ccc(NC(=O)Cc3ccc(S(=O)(=O)CC4CC4)cc3)cc2)C1 (stereo not shown) [Example 25, ethyl 1-{4-[2-(4-cyclopropylmethanesulfonylphenyl)acetamido]benzoyl}piperidine-3-carboxylate]
≤ 1	CN(C(=O)c1ccc(NC(=O)Cc2ccc(S(=O)(=O)CC3CC3)cc2)cc1)C(C)(C)C [Example 26, N-tert-butyl-4-[2-(4-cyclopropylmethanesulfonylphenyl)acetamido]-N-methylbenzamide]
≤ 0.1	O=C(Cc1ccc(S(=O)(=O)CC2CC2)cc1)Nc1ccc(C(=O)N(C2CCC2)C2CCC2)cc1 [Example 27, N,N-dicyclobutyl-4-[2-(4-cyclopropylmethanesulfonylphenyl)acetamido]benzamide]
≤ 1	CC1CCCCN1C(=O)c1ccc(NC(=O)Cc2ccc(S(=O)(=O)CC3CC3)cc2)cc1 (stereo not shown) [Example 28, 2-(4-cyclopropylmethanesulfonylphenyl)-N-[4-(2-methylpiperidine-1-carbonyl)phenyl]acetamide]
≤ 0.01	CCN(C(=O)c1ccc(NC(=O)Cc2ccc(S(=O)(=O)CC3CC3)cc2)cc1)c1ccc(C)cc1 [Example 29, 4-[2-(4-cyclopropylmethanesulfonylphenyl)acetamido]-N-ethyl-N-(4-methylphenyl)benzamide]
≤ 0.1	CCN(C(=O)c1ccc(NC(=O)Cc2ccc(S(=O)(=O)CC3CC3)cc2)cc1)c1cccc(C(=O)OC)c1 [Example 30, methyl 3-{N-ethyl-4-[2-(4-cyclopropylmethanesulfonylphenyl)acetamido]benzamido}benzoate]
≤ 0.01	CCN(C(=O)c1ccc(NC(=O)Cc2ccc(S(=O)(=O)CC3CC3)cc2)cc1)c1cccc(C)c1 [Example 31, 4-[2-(4-cyclopropylmethanesulfonylphenyl)acetamido]-N-ethyl-N-(3-methylphenyl)benzamide]
